What was measured:
Format in all cases: in vivo, rat
[1] = Pharmacological Study Report I: body weight of ZF (fa/fa) rats during 4 weeks of treatment; details: age 8-12 weeks, Compound A 150 mg/kg gavage twice daily, Compound B 40 mg/kg/day in chow
Experimental: (§1) Obese, insulin resistant ZF (fa/fa) rats, which are treated from the age of 8-12 weeks, were used as IR model. Rats were housed with a 12-h light/dark cycle and free access to food and water unless otherwise noted. Studies were approved by the Institutional Animal Care and Use Committee. There were a total of 18 animals in the study (8 week-old males, provided by Charles River). Animals were randomized into 3 groups (vehicle group, Compound A group, Compound B group, n=6 per group) based on random glucose level at the beginning of the study: • Group 1: ZF rats (fa/fa) (n=6), compound A (150 mg/kg via gavage) • Group 2: ZF rats (fa/fa) (n=6), compound B (40 mg/kg/day as admixture to the chow) • Group 3: ZF rats (fa/fa) (n=6), vehicle treatment (control chow, vehicle gavage)
(§2) Group 1 and 3 animals were treated with compound A or vehicle (water) for 4 weeks (from age 8-12 weeks) via oral gavage, twice daily. Chow containing compound B was fed to Group 2 ad lib. Group 1 and Group 3 were fed with chow without compound B ad lib.

[2] = system: Obese, insulin resistant ZF (fa/fa) rats; experiment: Pharmacological Study Report I: deuterated glucose disposal test (2H-GDT); details: 4 weeks, Compound A 150 mg/kg gavage twice daily
Experimental: as §1, §2
Rats underwent a 4 hour fast. […] At t=0, the blood glucose concentrations were determined with a glucometer, and a blood sample was obtained for determination of base line insulin and H2O^18 dilution. […]
One hundred micro liter aliquots of plasma samples inside the cape of an inverted vial were placed in a heating blocked filled with glass beads at 70° C. overnight and the water distillate inside the vial was collected. The deuterium and oxygen-18 isotope ratios of the blood of plasma samples were determined using a Thermo Finnigan High Temperature Conversion/Elemental Analyzer coupled with a Thermo Finnigan MAT 253 IRMS via a Conflo-III Interface. […] The deuterium isotope abundance is first calculated in δ 2H values relative to the international VSMOW standard, and then transformed to APE by using a calibration curve of standards with known enrichments. The ^2H2O enrichment was calculated for rats at 30 min after the glucose load. ^2H2O enrichment was converted to mmoles by multiplying enrichment by the TBW pool size and dividing by 20 (MW ^2H2O). […]

[3] = Pharmacological Study Report II: body weight and food intake; details: for Average food consumption, Week 1 / Average food consumption, Week 2 / Average food consumption, Week 3 / Average food consumption, Week 4: fa/fa rats, average +/- SD
Experimental: (§3) Thirty-six obese Zucker fa/fa and six lean Zucker fa/? male rats obtained from Charles River, were housed under normal vivarium conditions on a 12 hour light/dark cycle. The rats were kept two to a cage with food and water available ad lib, except during the weekly, 4 hour fasts. Water continued to be available during these fasts.
(§4) Compound A corresponds to Cariporide. Compound B corresponds to 2-Methyl-4,5-di-(methylsulfonyl)-benzoyl-guanidine hydrochloride hydrate. Compounds A and B were supplied in powder form by Merck Serono. Drugs were incorporated into a pelleted diet (LabDiet, 5001) by Research Diets, Inc (New Brunswick, N.J.) at concentrations of 0.44 g/kg or 0.88 g/kg of diet to yield approximate doses of 40 or 80 mg/kg. The concentration was calculated based on the assumption that a 300 g rat would eat about 30 g/d of chow. The same chow, but without drug, was fed to rats of both the lean and fa/fa control group animals.
(§5) One week prior to the start of the study, all rats were weighed. After a 4 hour fast, a blood sample was obtained for the determination of blood glucose, insulin, and glycosylated hemoglobin levels (HbA1c). Animals were then sorted on the basis of these parameters into the groups listed below. Rats were eight weeks of age at the onset of treatment.
(§6) • 1. ZF rats (fa/fa) (n=6) chow without drug • 2. ZF rats (fa/fa) (n=6) compound A (40 mg/kg/day) • 3. ZF rats (fa/fa) (n=6) compound A (80 mg/kg/day) • 4. ZF rats (fa/fa) (n=6) compound B (40 mg/kg/day) • 5. ZF rats (fa/fa) (n=6) compound B (80 mg/kg/day) • 6. lean Zucker rats (fa/?) (n=6) chow without drug Dosing Regime
(§7) Treatment appropriate chow was continuously available for 4 weeks except during scheduled 4 h fasts conducted once per week.
individual body weights were determined once per week. Average food intake per cage was also determined once per week and the individual rat consumption was calculated by dividing the cage average by 2 (rats housed 2/cage).

obese Zucker fa/fa rats = experiment: Pharmacological Study Report II: random and fasting (4 h) blood glucose and plasma insulin levels; details: for Baseline Insulin (fasting) / Change in Insulin (fasting) / Week 4 Insulin (fasting): Mean ± SD; for Change in Insulin (fasting): change over the 4 week treatment period; for Week 4 Insulin (fasting): week 4 of treatment
Experimental: as §3, §4, §5, §6, §7
Both random and fasting (4 h) blood glucose levels were determined using a hand-held glucometer (OneTouch Ultra, Lifescan, Inc. Milapitas, Calif.) on blood obtained from tail capillary samples. Plasma insulin levels were determined by a rat specific ELISA (Ultra Sensitive Rat Insulin ELISA Kit, Crystal Chem, Inc., Chicago, Ill.). The 4 h fast period started at 9 a.m. and ended after a blood draw at 1 p.m.

With `CC(C)c1ccc(C(=O)NC(=N)N)cc1S(C)(=O)=O` [Compound A, Cariporide] the “Body weight, difference among vehicle- and compound-treated groups” value [1] was “no significant differences”, the “Insulin sensitivity (% 2H2O recovery per insulin AUC), post-treatment compared to pre-treatment” value [2] was “no significant change” and the “Pancreatic compensation (% 2H2O recovery), before vs after treatment within group” value ([2]; Compound B 40 mg/kg/day in chow, 90 minute % D2O recovery) was “exhibited lower pancreatic compensation post-treatment”. The “Average weekly food intake vs chow fed fa/fa controls” value ([3]; Zucker fa/fa rats, 4 weeks, 40 or 80 mg/kg in chow) was “did not differ significantly”, the “Average food consumption, Week 1” value ([3]; 40 mg/kg in chow) was 32.2 +/− 3.5 grams and the “Average food consumption, Week 2” value ([3]; 40 mg/kg in chow) was 33.1 +/− 2.6 grams. The “Average food consumption, Week 3” value ([3]; 40 mg/kg in chow) was 33.9 +/− 2.4 grams, the “Average food consumption, Week 4” value ([3]; 40 mg/kg in chow) was 34.9 +/− 2.7 grams and the “Average food consumption, Week 1” value ([3]; 80 mg/kg in chow) was 34.3 +/− 2.5 grams. The “Average food consumption, Week 2” value ([3]; 80 mg/kg in chow) was 32.8 +/− 4.3 grams, the “Average food consumption, Week 3” value ([3]; 80 mg/kg in chow) was 32.3 +/− 4.5 grams and the “Average food consumption, Week 4” value ([3]; 80 mg/kg in chow) was 30.8 +/− 5.6 grams. For the same compound, the Fasting glucose concentration (obese Zucker fa/fa rats; 40 mg/kg, after 4 weeks of administration, 4 h fast) was “increased”, the “Fasting insulin relative to the fa/fa vehicle control” value (obese Zucker fa/fa rats; 80 mg/kg, 4th week of treatment) was “significantly decreased” and the “Baseline Insulin (fasting)” value (obese Zucker fa/fa rats; 40 mg/kg group) was 17.6 ± 5.1 ng/mL. The “Baseline Insulin (fasting)” value (obese Zucker fa/fa rats; 80 mg/kg group) was 15.9 ± 5.5 ng/mL, the “Change in Insulin (fasting)” value (obese Zucker fa/fa rats; 40 mg/kg) was 0.6 ± 9.6 ng/mL and the “Change in Insulin (fasting)” value (obese Zucker fa/fa rats; 80 mg/kg) was -3.4 ± 8.2 ng/mL. The “Week 4 Insulin (fasting)” value (obese Zucker fa/fa rats; 40 mg/kg in chow) was 18.2 ± 11.8 ng/mL and the “Week 4 Insulin (fasting)” value (obese Zucker fa/fa rats; 80 mg/kg in chow) was 12.5 ± 7.5 ng/mL.
